These are literature values, as cited in US20100280975A1, “SYSTEMS FOR CLINICAL TRIALS” (WisTa Laboratories Ltd., priority 2007, published 2010).

Each structure is given as a SMILES string.

The conditions of this data set: placebo arm improved 3.2 units from baseline ADAS-cog; cited from earlier work.

Turning to `COCCOC(=O)C1=C(C)NC(C)=C(C(=O)OC(C)C)C1c1cccc(C#N)c1Cl` (stereo not shown) [MEM-1003], the “efficacy in clinical trial” value is reported as “failed to demonstrate efficacy”.
